Laboratory results: patent EP2457441A1, “Insecticide composition” (priority 2010, dated 2012)

Key:
[1] = species and route not given; cited from earlier work
[2] = Toxicity (LD50/DL50); details: comparison of LD50 values

Row | Compound | LD50 [1] [mg/kg] | toxicity relative to common salt [2] | toxicity relative to sugar [2] | DL50 [1]
1 | CCOc1ccc(C(C)(C)COCc2cccc(Oc3ccccc3)c2)cc1 [ETOFENPROX] | 42880 | about 15 times less | two times less | –
2 | COC(C)(C)CCC[C@H](C)C/C=C/C(C)=C/C(=O)OC(C)C [S-METHOPRENE] | – | – | – | above 10000 mg/kg
3 | common salt | 3000 | – | – | –
